According to patent US6028195A, “Piperazine derivatives and process for the preparation thereof” (Samjin Pharmaceutical Co., Ltd., priority 1996, dated 2000):
Converted amounts (≈) assume the structure as drawn. Where two headings read alike, the source gives them in different places.

Experiments:
[1] = test system: mouse leukemia P388 cells; experiment: In vivo antitumor effects against mouse leukemia P388 cells in BDF1 mice; settings: P388, ip, abdominal cavity
Method: In vivo antitumor effects against mouse leukemia P388 cells.
1) Leukemia P388 cells being transfer-cultured successively in DBA/2 mouse, were grafted into each mouse of a group comprising 8 mice of 6 week old BDF1 mouse with the dose of 1×10^6 cells/0.1 ml. […]
3) With observation everyday, survival times of tested mice were measured. Antitumor activities was determined in such a manner that the increasing ratio(T/C%) of average survival days of drug-treated groups compared with the control group was calculated using the mean survival times of each tested groups.

SKMEL-2 (human melanoma) = experiment: SRB assay, in vitro antitumor effect against SKMEL-2; assay type: cell-based; settings: Homo sapiens; SK-MEL-2, 48 hours; read-out: ED50 (the source's name)
Method: (§1) In vitro antitumor effect against human tumor cell lines.
(§2) b. 5×10^3 ~2×10^4 cells were added into each well of 96-well plate and cultured in 5% CO2 incubator, at 37° C., for 24 hours.
(§3) c. Each sample drug was dissolved in a little DMSO and diluted with the used medium to a prescribed concentration for experiments, wherein the final concentration of DMSO was controlled below 0.5%.
(§4) d. Medium of each well cultured for 24 hours as above b. was removed by aspiration. Each 200 μl of drug samples prepared in c. was added into each well and the wells were cultured for 48 hours. Tz(time zero) plates were collected at the point of time drugs were added.
(§5) e. According to the SRB assay method, cell fixing with TCA, staining with 0.4% SRB solution, washing with 1% acetic acid and elution of dye with 10 mM Tris solution were carried out on Tz plates and culture-ended plates, and then, OD values were measured at 520 nm.
(§6) a. Time zero(Tz) value was determined with measuring the SRB protein value at the point of time drugs were added.
(§7) b. Control value(C) was determined with the OD value of an well untreated with drug.
(§8) c. Drug-treated test value(T) was determined with the OD value of drug-treated well.
(§9) d. Effects of drugs were estimated with growth stimulation, net growth inhibition, net killing etc. calculated from Tz, C and T.
(§10) e. If T≥Tz, cellular response function was calculated by 100×(T-Tz)/(C-Tz), and if T<Tz, by 100×(T-Tz)/Tz.

HCT-15 (human colon) = experiment: SRB assay, in vitro antitumor effect against HCT-15; assay type: cell-based; settings: Homo sapiens; HCT 15, 48 hours; read-out: ED50 (the source's name)
Method: as §1, §2, §3, §4, §5, §6, §7, §8, §9, §10

SKOV-3 (human ovarian) = experiment: SRB assay, in vitro antitumor effect against SKOV-3; assay type: cell-based; settings: Homo sapiens; SK-OV-3, 48 hours; read-out: ED50 (the source's name)
Method: as §1, §2, §3, §4, §5, §6, §7, §8, §9, §10

[2] = test system: A549 (human non-small lung cell); experiment: SRB assay, in vitro antitumor effect against A549; assay type: cell-based; settings: Homo sapiens; A549, 48 hours; read-out: ED50 (the source's name)
Method: as §1, §2, §3, §4, §5, §6, §7, §8, §9, §10

XF 498 (human CNS) = experiment: SRB assay, in vitro antitumor effect against XF 498; assay type: cell-based; settings: Homo sapiens, XF498; XF-498, 48 hours; read-out: ED50 (the source's name)
Method: as §1, §2, §3, §4, §5, §6, §7, §8, §9, §10

[3] = Acute toxicity test (LD50), Litchfield-Wilcoxon method; settings: mouse, in vivo, ip, male ICR mice, 14 days
Method: Acute toxicity test (LD50): Litchfield-Wilcoxon method.
6 weeks old ICR mice(male 30±2.0 g) were fed freely with solid feed and water at room temperature, 23±1° C. and at humidity 60±5%. Sample drugs were injected into the abdominal cavities of mice, while each group comprises 6 mice. Observed during 14 days, external appearances and life or dead were recorded, and then, visible pathogenies were observed from dead animals by dissection. LD50 value was calculated by Litchfiled-wilcoxon method.

[4] = nine everyday, read-out: T/C(%)
[5] = on days 1, 4, 8, read-out: T/C(%)

IC50 (SKMEL-2 (human melanoma)) [µg/mL] | IC50 (HCT-15 (human colon)) [µg/mL] | IC50 (SKOV-3 (human ovarian)) [µg/mL] | IC50 [2] [µg/mL] | IC50 (XF 498 (human CNS)) [µg/mL] | SMILES | response vs control in vivo at 50 mg/kg [1, 4] [%] | response vs control in vivo at 100 mg/kg [1, 4] [%] | LD50 at 336 h [3] [mg/kg] | further results
– | – | – | – | – | COc1cc(OC)cc(N2CCN(C(=O)N(C)c3cc4ccccc4nc3OC)CC2)c1 [Example 98, 1-[N-(2-Methoxyquinolin-3-yl)-N-methylaminocarbonyl]-4-(3,5-dimethoxyphenyl)piperazine] | 110 | 150 | – | response vs control in vivo at 25 mg/kg [1, 4]: 110%
0.102 (≈ 0.267 µM) | 0.066 (≈ 0.173 µM) | 0.092 (≈ 0.241 µM) | 0.056 (≈ 0.146 µM) | 0.06 (≈ 0.157 µM) | COc1nc(C)c(C)cc1N(C)C(=O)N1CCN(c2cc(C)cc(C)c2)CC1 [Example 135, 1-[N-(5,6-Dimethyl-2-methoxypyridin-3-yl)-N-methylaminocarbonyl]-4-(3,5-dimethylphenyl)piperazine] | 110 | 150 | – | response vs control in vivo at 25 mg/kg [1, 4]: 100%
– | – | – | – | – | CCc1cc(N(C)C(=O)N2CCN(c3cc(C)cc(C)c3)CC2)c(OC)nc1C [Example 144, 1-[N-(5-Ethyl-2-methoxy-6-methylpyridin-3-yl)-N-methylaminocarbonyl]-4-(3,5-dimethylphenyl)piperazine] | 110 | 110 | – | response vs control in vivo at 200 mg/kg ([1]; 200 mg/kg, nine everyday, read-out: T/C(%)): 125%
– | – | – | – | – | COc1cc(C)c(C)cc1NC(=O)N1CCN(c2ccccc2)CC1 [Example 170, 1-[(4,5-Dimethyl-2-methoxyphenyl)aminocarbonyl]-4-phenylpiperzine] | – | – | 573 | –
0.00323 (≈ 0.00809 µM) | 0.00181 (≈ 0.00453 µM) | 0.00372 (≈ 0.00931 µM) | 0.000645 (≈ 0.00161 µM) | 0.000572 (≈ 0.00143 µM) | COc1cc(OC)cc(N2CCN(C(=O)Nc3cc(C)c(C)cc3OC)CC2)c1 [Example 171, 1-[(4,5-Dimethyl-2-methoxyphenyl)aminocarbonyl]-4-(3,5-dimethoxyphenyl)piperazine] | – | – | – | response vs control in vivo at 25 mg/kg [1, 5]: 100%; response vs control in vivo at 50 mg/kg [1, 5]: 100%; response vs control in vivo at 100 mg/kg [1, 5]: 140%
– | – | – | – | – | COc1cc(C)c(C)cc1NC(=O)N1CCN(c2cccc(OC(C)=O)c2)CC1 [Example 182, 1-[(4,5-Dimethyl-2-methoxyphenyl)aminocarbonyl]-4-(3-acetoxyphenyl)piperazine] | – | – | 348 | –
– | – | – | – | – | COc1cc(C)c(C)cc1NC(=O)N1CCN(c2cc(-c3ccccc3)ccc2OC)CC1 [Example 186, 1-[(4,5-Dimethyl-2-methoxyphenyl)aminocarbonyl]-4-(2-methoxy-5-phenylphenyl)piperazine] | – | – | > 2000 | –
– | – | – | – | – | C=C(C)c1ccccc1N1CCN(C(=O)Nc2cc(C)c(C)cc2OC)CC1 [Example 187, 1-[(4,5-Dimethyl-2-methoxyphenyl)aminocarbonyl]-4-(2-isopropenylphenyl)piperazine] | – | – | 418 | –
0.52 (≈ 1.4 µM) | 0.38 (≈ 1.02 µM) | 0.54 (≈ 1.45 µM) | 0.47 (≈ 1.27 µM) | 0.7 (≈ 1.88 µM) | COc1cc(C)c(C)cc1NC(=S)N1CCN(c2cccc(O)c2)CC1 [Example 206, 1-[(4,5-Dimethyl-2-methoxyphenyl)aminothiocarbonyl]-4-(3-hydroxyphenyl)piperazine] | – | – | – | –

SMILES | IC50 (SKMEL-2 (human melanoma)) [µg/mL] | IC50 (HCT-15 (human colon)) [µg/mL] | IC50 (SKOV-3 (human ovarian)) [µg/mL] | IC50 [2] [µg/mL] | IC50 (XF 498 (human CNS)) [µg/mL] | response vs control in vivo at 50 mg/kg [1, 4] [%] | response vs control in vivo at 100 mg/kg [1, 4] [%] | LD50 at 336 h [3] [mg/kg] | further results
COc1ccc(C)c(N2CCN(C(=O)Nc3cc(C)c(C)cc3OC)CC2)c1 [Example 184, 1-[(4,5-Dimethyl-2-methoxyphenyl)aminocarbonyl]-4-(5-methoxy-2-methylphenyl)piperazine] | 0.17 (≈ 0.443 µM) | 0.2 (≈ 0.522 µM) | 0.34 (≈ 0.887 µM) | 0.28 (≈ 0.73 µM) | 0.12 (≈ 0.313 µM) | – | – | 309 | –
